These results are taken from US8034822B2, “Glucokinase activators” (Takeda San Diego, Inc., priority 2006, dated 2011).

pEC50: −log10 of the molar value.

The assay deals with T1, glucokinase (GK) (Homo sapiens, UniProt P35557).
T1 construct: I.D. No. 1 corresponds to residues 12-465 of glucokinase; made in house; host or cells: E. coli DH10b-T1r, pFLAG-CTC plasmid
T1 sequence (P35557 with tags, fused parts or gaps isoform P35557-2): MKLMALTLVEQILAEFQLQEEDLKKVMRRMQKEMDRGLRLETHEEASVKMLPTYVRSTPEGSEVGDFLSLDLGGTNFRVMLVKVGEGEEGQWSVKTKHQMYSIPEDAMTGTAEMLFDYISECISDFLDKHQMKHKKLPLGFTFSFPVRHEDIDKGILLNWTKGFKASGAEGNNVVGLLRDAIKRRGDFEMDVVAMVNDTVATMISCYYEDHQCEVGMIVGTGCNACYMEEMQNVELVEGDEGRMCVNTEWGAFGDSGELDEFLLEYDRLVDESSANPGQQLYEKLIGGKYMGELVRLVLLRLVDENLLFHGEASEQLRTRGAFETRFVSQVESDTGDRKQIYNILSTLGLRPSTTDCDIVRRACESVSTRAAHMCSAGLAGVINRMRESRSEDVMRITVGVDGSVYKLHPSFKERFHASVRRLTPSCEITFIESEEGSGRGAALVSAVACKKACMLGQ
Description: enzymatic glucokinase activity assay (ATP consumption, KinaseGlo luminescence). The assay is classed as biochemical. The following applies: Against GK; Kact = concentration giving 50% of maximal increase in GK activity; 5 μM ATP, 5 mM Glucose, 60 min room temperature; values given as bins; read-out: pKact. The source says: The activity of compounds as glucokinase activators may be assayed in vitro, in vivo or in a cell line. Provided below is an enzymatic glucokinase activity assay.
Purified glucokinase may be obtained as follows. DNA encoding residues 12-465 of the full-length sequence of the human enzyme may be amplified by PCR and cloned into the HindIII and EcoRI sites of pFLAG-CTC (Sigma). SEQ. I.D. No. 1 corresponds to residues 12-465 of glucokinase.
The expression of recombinant glucokinase protein may be carried out by transformation and growth of DH10b-T1r E. coli cells incorporating the (pFLAG-CTC) plasmid in LB media. Protein expression can be induced in this system by the addition of IPTG to the culture medium.
Recombinant protein may be isolated from cellular extracts by passage over Sepharose Q Fast Flow resin (Pharmacia). This partially purified GK extract may then be further purified by a second passage over Poros HQ10 (Applied Biosystems). The purity of GK may be determined on denaturing SDS-PAGE gel. Purified GK may then be concentrated to a final concentration of 20.0 mg/ml. After flash freezing in liquid nitrogen, the proteins can be stored at −78° C. in a buffer containing 25 mM TRIS-HCl pH 7.6, 50 mM NaCl, and 0.5 mM TCEP.
The activation properties of compounds for GK may be determined using a black 384-well-plate format under the following reaction conditions: 25 mM Hepes pH 7.2, 25 mM NaCl, 10 mM MgCl2, 0.01% Brij35, 1 mM DTT, 5 μM ATP, 5 mM Glucose 2% DMSO. The amount of ATP consumed may be determined quantitatively by addition of equal volume of luciferase reagent (luciferase+beetle luciferin—KinaseGlo Luminescent Kinase Assay kit from Promega). The luminescence intensity may be measured by using the Analyst HT from LJL Biosystems.
The assay reaction may be initiated as follows: 4 μl of substrate mixture (12.5 μM ATP and 12.5 mM Glucose) was added to each well of the plate, followed by the addition of 2 μl of activator (2 fold serial dilutions for 11 data points for each activator) containing 10% DMSO. 4 μL of 1.25 nM GK solution may be added to initiate the reaction. The reaction mixture may then be incubated at room temperature for 60 min, and quenched and developed by addition of 10 μL of luciferase reagent. Luminescence intensities of the resulting reaction mixtures may be measured after a 10 min incubation at room temperature. The luminescence intensity may be measured by using the Analyst HT from LJL Biosystems.
pKact and % ACTmax values may be calculated by non-linear curve fitting of the compound concentrations and luminescence intensities to a standard inhibition/activation equation.
Background: Kinase-Glo reads ATP consumption through a luciferase reaction.
On to `O=C(Nc1ccc(F)cn1)C(CC1CCCCC1)n1cnc2cc(S(=O)(=O)C3CC3)ccc2c1=O` (stereo not drawn) [Compound 74, 3-Cyclohexyl-2-(7-cyclopropanesulfonyl-4-oxo-4H-quinazolin-3-yl)-N-(5-fluoro-pyridin-2-yl)-propionamide], for which the pEC50 was 5.80 to 6.00.

Regarding `Cc1cnc(NC(=O)C(CC2CCCCC2)n2cnc3cc(S(C)(=O)=O)ccc3c2=O)s1` (stereo not drawn) [Compound 61, 3-Cyclohexyl-2-(7-methanesulfonyl-4-oxo-4H-quinazolin-3-yl)-N-(5-methyl-thiazol-2-yl)-propionamide], the pEC50 was not above 5.70.

With `CS(=O)(=O)c1ccc2c(=O)n(C(Cc3c(F)cccc3F)C(=O)Nc3ccc(Cl)cn3)cnc2c1` (stereo not drawn) [Compound 77, N-(5-Chloro-pyridin-2-yl)-3-(2,6-difluoro-phenyl)-2-(7-methanesulfonyl-4-oxo-4H-quinazolin-3-yl)-propionamide], the pEC50 was 5.80 to 6.00.

`COC(=O)c1ccc(NC(=O)C(CC2CCCCC2)n2cnc3c(C)cc(Cl)cc3c2=O)nc1` (stereo not drawn) [Compound 207, methyl 6-(2-(6-chloro-8-methyl-4-oxoquinazolin-3(4H)-yl)-3-cyclohexylpropanamido)nicotinate]: the pEC50 is 5.80 to 6.00.

As for `CS(=O)(=O)c1ccc2c(=O)n(C(CC3CCCCC3)C(=O)Nc3ncc(Cl)s3)cnc2c1` (stereo not drawn) [Compound 56, N-(5-Chloro-thiazol-2-yl)-3-cyclohexyl-2-(7-methanesulfonyl-4-oxo-4H-quinazolin-3-yl)-propionamide], the pEC50 is 5.80 to 6.00.

With `O=C(Nc1ccc2ccccc2n1)C(CC1CCCCC1)n1cnc2ccc(F)cc2c1=O` (stereo not drawn) [Compound 195, 3-cyclohexyl-2-(6-fluoro-4-oxoquinazolin-3(4H)-yl)-N-(quinolin-2-yl)propanamide], the pEC50 is 6.10 to 6.30.

For the molecule `Cn1c(=O)n(C(CC2CCCCC2)C(=O)Nc2nccs2)c(=O)c2cc(Cl)ccc21` (stereo not drawn) [Compound 39, 2-(6-chloro-1-methyl-2,4-dioxo-1,2-dihydroquinazolin-3(4H)-yl)-3-cyclohexyl-N-(thiazol-2-yl)propanamide], the pEC50 is not above 5.70.

On to `O=C(NC1CC1)c1ccc2c(=O)n(C(CC3CCCCC3)C(=O)Nc3ncc(Cl)s3)c(=O)[nH]c2c1` (stereo not drawn) [Compound 172, 3-(1-(5-chlorothiazol-2-ylamino)-3-cyclohexyl-1-oxopropan-2-yl)-N-cyclopropyl-2,4-dioxo-1,2,3,4-tetrahydroquinazoline-7-carboxamide], for which the pEC50 is 6.10 to 6.30.

For the molecule `CS(=O)(=O)c1ccc2c(=O)n(C(CC3CCCCC3)C(=O)Nc3ccc(F)cn3)cnc2c1` (stereo not drawn) [Compound 70, 3-Cyclohexyl-N-(5-fluoro-pyridin-2-yl)-2-(7-methanesulfonyl-4-oxo-4H-quinazolin-3-yl)-propionamide], the pEC50 is not above 5.70.

As to `CS(=O)(=O)c1ccc2c(=O)n(C(CC3CCCCC3)C(=O)Nc3ccc(C#N)cn3)cnc2c1` (stereo not drawn) [Compound 166, N-(5-cyanopyridin-2-yl)-3-cyclohexyl-2-(7-(methylsulfonyl)-4-oxoquinazolin-3(4H)-yl)propanamide], the pEC50 was not above 5.70.

With `O=C(Nc1ncc(F)s1)C(CC1CCCCC1)n1c(=O)[nH]c2ccc(F)cc2c1=O` (stereo not drawn) [Compound 57, 3-Cyclohexyl-2-(6-fluoro-2,4-dioxo-1,4-dihydro-2H-quinazolin-3-yl)-N-(5-fluoro-thiazol-2-yl)-propionamide], the pEC50 is not above 5.70.

Consider `COc1ccc2ncn(C(CC3CCCCC3)C(=O)Nc3ccc(C(N)=O)cn3)c(=O)c2c1` (stereo not drawn) [Compound 167, 6-(3-cyclohexyl-2-(6-methoxy-4-oxoquinazolin-3(4H)-yl)propanamido)nicotinamide], for which the pEC50 was 6.10 to 6.30.

Take `CCOC(=O)CCc1ccc(NC(=O)C(CC2CCCCC2)n2cnc3cc(S(C)(=O)=O)ccc3c2=O)nc1` (stereo not drawn) [Compound 76, 3-{6-[3-Cyclohexyl-2-(7-methanesulfonyl-4-oxo-4H-quinazolin-3-yl)-propionylamino]-pyridin-3-yl}-propionic acid ethyl ester]: the pEC50 was not above 5.70.

For `CS(=O)(=O)c1ccc2c(=O)n(C(CC3CCCCC3)C(=O)Nc3ccc(C(N)=O)cn3)cnc2c1` (stereo not drawn) [Compound 158, 6-(3-cyclohexyl-2-(7-(methylsulfonyl)-4-oxoquinazolin-3(4H)-yl)propanamido)nicotinamide], the pEC50 was 6.10 to 6.30.

For `O=C(Nc1nccs1)C(CC1CCCCC1)n1cnc2c(Cl)cccc2c1=O` (stereo not drawn) [Compound 139, 2-(8-chloro-4-oxoquinazolin-3(4H)-yl)-3-cyclohexyl-N-(thiazol-2-yl)propanamide], the pEC50 is not above 5.70.

Take `COC(=O)c1ccc(NC(=O)[C@@H](CC2CCCCC2)n2cnc3c(C(F)(F)F)cccc3c2=O)nc1` [Compound 211, (R)-methyl 6-(3-cyclohexyl-2-(4-oxo-8-(trifluoromethyl)quinazolin-3(4H)-yl)propanamido)nicotinate]: the pEC50 is not below 6.40.

For the molecule `CCS(=O)(=O)c1ccc2c(=O)n(C(CC3CCCCC3)C(=O)Nc3ccc(C(N)=O)cn3)cnc2c1` (stereo not drawn) [Compound 81, 6-[3-Cyclohexyl-2-(7-ethanesulfonyl-4-oxo-4H-quinazolin-3-yl)-propionylamino]-nicotinamide], the pEC50 is not below 6.40.

`CCS(=O)(=O)c1ccc2c(=O)n(C(CC3CCCCC3)C(=O)Nc3ccc(Cl)cn3)cnc2c1` (stereo not drawn) [Compound 72, N-(5-Chloro-pyridin-2-yl)-3-cyclohexyl-2-(7-ethanesulfonyl-4-oxo-4H-quinazolin-3-yl)-propionamide]: the pEC50 is 6.10 to 6.30.

On to `CN1CCC(CNC(=O)c2ccc3c(=O)n(C(CC4CCCCC4)C(=O)Nc4ncc(Cl)s4)c(=O)[nH]c3c2)CC1` (stereo not drawn) [Compound 179, 3-(1-(5-chlorothiazol-2-ylamino)-3-cyclohexyl-1-oxopropan-2-yl)-N-((1-methylpiperidin-4-yl)methyl)-2,4-dioxo-1,2,3,4-tetrahydroquinazoline-7-carboxamide], for which the pEC50 was 6.10 to 6.30.

As to `CS(=O)(=O)c1ccc2ncn(C(CC3CCCCC3)C(=O)Nc3ccc(Cl)cn3)c(=O)c2c1` (stereo not drawn) [Compound 79, N-(5-Chloro-pyridin-2-yl)-3-cyclohexyl-2-(6-methanesulfonyl-4-oxo-4H-quinazolin-3-yl)-propionamide], the pEC50 was 6.10 to 6.30.

With `COC(=O)c1ccc(NC(=O)C(CC2CCCCC2)n2cnc3c(S(=O)(=O)C(C)C)csc3c2=O)nc1` (stereo not drawn) [Compound 104, Methyl 6-(3-cyclohexyl-2-(7-(isopropylsulfonyl)-4-oxothieno[3,2-d]pyrimidin-3(4H)-yl)propanamido)nicotinate], the pEC50 is 6.10 to 6.30.

As for `COC(=O)c1ccc(NC(=O)[C@H](CC2CCCCC2)n2cnc3ccc(F)cc3c2=O)nc1` [Compound 203, (S)-methyl 6-(3-cyclohexyl-2-(6-fluoro-4-oxoquinazolin-3(4H)-yl)propanamido)nicotinate], the pEC50 is 5.80 to 6.00.

As for `O=C(NC1CC1)c1ccc2c(=O)n(C(CC3CCCCC3)C(=O)Nc3ccc(Cl)cn3)cnc2c1` (stereo not drawn) [Compound 171, 3-(1-(5-chloropyridin-2-ylamino)-3-cyclohexyl-1-oxopropan-2-yl)-N-cyclopropyl-4-oxo-3,4-dihydroquinazoline-7-carboxamide], the pEC50 was not below 6.40.

As to `O=C(Nc1ccc(Cl)cn1)C(CC1CCCCC1)n1cnc2ccc(F)cc2c1=O` (stereo not drawn) [Compound 160, N-(5-chloropyridin-2-yl)-3-cyclohexyl-2-(6-fluoro-4-oxoquinazolin-3(4H)-yl)propanamide], the pEC50 was 5.80 to 6.00.
